Here are results for two compounds from article PMC12198368, “The mitochondrial methylation potential gates mitoribosome assembly” (Nature Communications, 2025).

What all share (experiment): cryo-EM structure of the complex
Assay [1] concerns the target T1, GTP-binding protein 7 GTPBP7 (Mus musculus, UniProt Q8R2R6).
T1 construct: gene Mtg1; BS3 cross-linked
T1 sequence (Q8R2R6 1-326): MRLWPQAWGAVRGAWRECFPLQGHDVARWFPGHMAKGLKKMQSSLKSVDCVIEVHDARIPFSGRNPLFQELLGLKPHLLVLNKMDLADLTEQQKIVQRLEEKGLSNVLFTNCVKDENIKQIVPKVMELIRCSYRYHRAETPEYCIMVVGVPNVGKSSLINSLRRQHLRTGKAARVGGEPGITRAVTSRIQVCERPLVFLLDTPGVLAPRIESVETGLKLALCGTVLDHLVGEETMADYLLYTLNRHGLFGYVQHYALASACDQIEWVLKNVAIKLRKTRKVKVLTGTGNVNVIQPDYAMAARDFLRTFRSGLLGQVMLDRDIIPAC
Conditions: 0.5 mM GMPPNP in lysis and resuspension buffers, 10 mM Mg(OAc)2, BS3 cross-linked; pre-hydrolysis (closed) conformation; mtLSU states B1 and B2.

Assay [2] concerns the target T2, GTP-binding protein 10, GTPBP10 (Mus musculus, UniProt Q8K013).
T2 construct: BS3 cross-linked
T2 sequence (Q8K013 1-366): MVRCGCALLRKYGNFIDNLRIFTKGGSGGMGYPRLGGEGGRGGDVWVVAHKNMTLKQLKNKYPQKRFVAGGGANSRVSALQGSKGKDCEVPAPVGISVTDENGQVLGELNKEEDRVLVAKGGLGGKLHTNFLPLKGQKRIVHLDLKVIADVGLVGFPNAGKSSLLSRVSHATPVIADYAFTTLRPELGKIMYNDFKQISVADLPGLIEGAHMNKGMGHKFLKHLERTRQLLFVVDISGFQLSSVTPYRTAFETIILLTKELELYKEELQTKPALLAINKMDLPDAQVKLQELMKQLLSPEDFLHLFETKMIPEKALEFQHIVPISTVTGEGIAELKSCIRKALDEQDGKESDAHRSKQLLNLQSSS
Conditions: 0.5 mM GMPPNP in lysis and resuspension buffers, 10 mM Mg(OAc)2, BS3 cross-linked; relatively poor local resolution, ligand placed in binding pocket; mtLSU states B1 and B2.

The target in assay [3] is rRNA methyltransferase 2, MRM2 (Mus musculus, UniProt Q9CPY0). In kind it is binding. To be noted: mtLSU state D; endogenous ligand, not added; SAM-depleted mitochondria; native sample, no GMPPNP.
Sequence of rRNA methyltransferase 2, MRM2 (Q9CPY0 25-246): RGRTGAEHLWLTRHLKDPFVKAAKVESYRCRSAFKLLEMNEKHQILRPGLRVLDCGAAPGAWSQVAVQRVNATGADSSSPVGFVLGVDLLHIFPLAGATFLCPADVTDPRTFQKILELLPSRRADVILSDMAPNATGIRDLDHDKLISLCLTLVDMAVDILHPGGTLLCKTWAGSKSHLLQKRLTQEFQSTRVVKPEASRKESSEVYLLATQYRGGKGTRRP

Consider `Nc1nc2c(ncn2[C@@H]2O[C@H](COP(=O)(O)OP(=O)(O)NP(=O)(O)O)[C@@H](O)[C@H]2O)c(=O)[nH]1` [GMPPNP], for which the “cryo-EM structure of the complex” value in assay [1] is “GTPBP7 adopts its GMPPNP-bound pre-hydrolysis conformation as observed previously”; in assay [2] it was “A molecule of GMPPNP was placed in the binding pockets of GTPBP7 and GTPBP10”.

Turning to `Nc1ncnc2c1ncn2[C@@H]1O[C@H](CSCC[C@H](N)C(=O)O)[C@@H](O)[C@H]1O` [SAH], the “cryo-EM structure of the complex” value in assay [3] is “A molecule of SAH was placed in the binding pocket of MRM2”.
